This note sets out measurements from patent publication US20250169495A1, “COMPOSITIONS AND METHODS FOR CONTROLLING DROSOPHILA FLIES” (Rutgers, The State University of New Jersey, priority 2023, published 2025).

Experiment [1] has as its system Drosophila suzukii adults. Nature of the experiment: Multiple choice bioassay #1: anthracnose-induced volatiles, gated traps with blueberries. It counts as in vivo. The note with it: 50 μL neat volatile added to blueberry fruit in gated trap; 15 traps per arena; 24 h; n=4. On the procedure: These bioassays were done in arenas that consisted of a dome cage (60 cm width×60 cm length x 60 cm height; BugDorm-2120 Insect tent; shop.bugdorm.com) (FIG. 1A). Within each arena, 15 gated traps were positioned randomly in a circle (40 cm diameter) at equal distance with each trap 8.4 cm apart along the circumference (FIG. 1A). Each gated trap consisted of 50 mL polystyrene tubes (Fisher Scientific, Nazareth, PA, USA) covered with aluminum foil and sealed with Parafilm®, with a 4 mm-diameter hole in the center of the Parafilm to provide an entrance to flies. All traps had equal quantities (ca. 5 g) of store-bought organic blueberry fruit (n=5); fruit were sterilized with bleach prior to the study (10% bleach for 2 min, rinsed three times in distilled water). One of the 15 traps served as a control (with blueberry fruit only) and the remaining 14 traps had one of the anthracnose volatile compounds added to the blueberry fruit. The 14 compounds tested were: 3-hydroxy-2-butanone, styrene, (E)-2-hexen-1-ol, ethyl 3-hydroxy-3-methylbutanoate, 2-methyl-1-butanol, ethyl propanoate, 2-methyl-1-propanol, diethyl carbonate, 2-methylpropanal, 3-methyl-1-butanol, ethyl 2-methylpropanoate, ethyl butanoate, ethyl (E)-but-2-enoate, and 3-methyl-3 buten-1-ol (see Results). Each volatile (50 μL, neat) was released from a 1 mL polyethylene vial (Globe Scientific Inc., Paramus, NJ, USA) with a piece of cotton placed inside each trap (control traps had vials with cotton but without the volatile). A vial with a cotton ball soaked with deionized water was placed in the middle of the arena to provide flies with water during the experiment. Roughly 300 D. suzukii adults (1:1 male: female ratio) were released inside each arena and the number and sex of flies inside treatment and control traps was recorded after 24 h. The experiment started at 1:00 p.m., was replicated 4 times, and was done in a laboratory under 22+2° C., 55+5% RH, 16:8 (L:D) h.
Data from multiple choice assays on the percent of male and female D. suzukii adults responding to each volatile were compared using ANOVA (Minitab version 17; Minitab Inc., State College, PA, USA). The ANOVA model included treatment, sex, and their interaction as fixed factors and block (replicate) as a random factor. A multi-comparison Tukey test (Minitab) was used to determine differences among treatments. Percent data were arcsine square-root transformed prior to ANOVA. Pairwise choice assays were analyzed using G-tests with William's correction. Non-responders were excluded from the statistical analyses.

In experiment [2] the test system is Drosophila suzukii adults. Nature of the experiment: Multiple choice bioassay #2: known and putative repellents. It counts as in vivo. The note with it: 50 μL neat; six traps per arena; 24 h; n=6. On the procedure:
Within each arena, six gated traps were positioned randomly in a circle (40 cm diameter) at equal distance with each trap 20 cm apart along the circumference. Each gated trap contained ˜5 g of store-bought organic blueberry fruit (n=5), as described elsewhere herein. One of the six traps served as a control (with blueberry fruit only) and the remaining five traps had one of the repellents added to the blueberry fruit. Each volatile (50 μL, neat) was released from a 1 mL polyethylene vial with a piece of cotton placed inside each trap (control traps had vials with cotton but without the volatile). A vial with a cotton ball soaked with deionized water was placed in the middle of the arena. Roughly 150 D. suzukii adults (1:1 male: female ratio) were released inside each arena and the number and sex of flies inside treatment and control traps was recorded after 24 h. The experiment started at 1:00 p.m., was replicated 6 times, and was done in a laboratory under 22±2° C., 55±5% RH, 16:8 (L:D) h. Data from multiple choice assays on the percent of male and female D. suzukii adults responding to each volatile were compared using ANOVA (Minitab version 17; Minitab Inc., State College, PA, USA). The ANOVA model included treatment, sex, and their interaction as fixed factors and block (replicate) as a random factor. A multi-comparison Tukey test (Minitab) was used to determine differences among treatments. Percent data were arcsine square-root transformed prior to ANOVA. Pairwise choice assays were analyzed using G-tests with William's correction. Non-responders were excluded from the statistical analyses.

Molecules are shown by their SMILES.

For `C/C=C/C(=O)OCC` [ethyl (E)-but-2-enoate], the “number of flies captured relative to the control” value in experiment [1] is “reduced the number of flies captured relative to the control”. Moreover, in experiment [2], the “strength of repellency among the five repellents (rank)” value was “the most repellent”. Turning to `CCCCCc1ccco1` [2-pentylfuran, reference compound], the “strength of repellency among the five repellents (rank)” value in experiment [2] is “the least repellent”.

For `CCCC(=O)OCC` [ethyl butanoate], the “number of flies captured relative to the control” value in experiment [1] is “reduced the number of flies captured relative to the control”.
